Reference: ChEMBL document CHEMBL1177809, “Motualevic acids and analogs: synthesis and antimicrobial structure-activity relationships” (2010)
In brackets after ≈: the same amount, converted by molar mass. Activity calls are given as the source filed them. The rule behind the calls is not given here.

What was measured:
Staphylococcus aureus [1] = assay: Antibacterial activity against Staphylococcus aureus at 25 ug/disk by agar disk diffusion assay; format: functional; settings: read-out: IZ
Staphylococcus aureus [2] = assay: Antibacterial activity against methicillin-resistant Staphylococcus aureus at 25 ug/disk by agar disk diffusion assay; format: functional; settings: read-out: IZ
Staphylococcus aureus [3] = assay: Antibacterial activity against Staphylococcus aureus at 50 ug/disk by agar disk diffusion assay; format: functional; settings: for zone of inhibition at 50 µg/disc: read-out: IZ
Staphylococcus aureus [4] = assay: Antibacterial activity against methicillin-resistant Staphylococcus aureus at 50 ug/disk by agar disk diffusion assay; format: functional; settings: for zone of inhibition at 50 µg/disc: read-out: IZ
Enterococcus faecium [5] = assay: Antibacterial activity against Enterococcus faecium at 10 ug/disk by agar disk diffusion assay; format: functional; settings: read-out: IZ
Enterococcus [6] = assay: Antibacterial activity against vancomycin-resistant Enterococcus at 10 ug/disk by agar disk diffusion assay; format: functional; settings: read-out: IZ
Enterococcus [7] = assay: Antibacterial activity against vancomycin-resistant Enterococcus at 25 ug/disk by agar disk diffusion assay; format: functional; settings: read-out: IZ
Staphylococcus aureus [8] = assay: Antibacterial activity against Staphylococcus aureus by microbroth dilution assay; format: functional
Staphylococcus aureus [9] = assay: Antibacterial activity against methicillin-resistant Staphylococcus aureus by microbroth dilution assay; format: functional
Enterococcus faecium [10] = assay: Antibacterial activity against Enterococcus faecium by microbroth dilution assay; format: functional
Enterococcus [11] = assay: Antibacterial activity against vancomycin-resistant Enterococcus by microbroth dilution assay; format: functional
Staphylococcus aureus [12] = assay: Antibacterial activity against Staphylococcus aureus at 10 ug/disk by agar disk diffusion assay; format: functional; settings: read-out: IZ
Staphylococcus aureus [13] = assay: Antibacterial activity against methicillin-resistant Staphylococcus aureus at 10 ug/disk by agar disk diffusion assay; format: functional; settings: read-out: IZ
Enterococcus faecium [14] = assay: Antibacterial activity against Enterococcus faecium at 25 ug/disk by agar disk diffusion assay; format: functional; settings: read-out: IZ
Enterococcus faecium [15] = assay: Antibacterial activity against Enterococcus faecium at 50 ug/disk by agar disk diffusion assay; format: functional, organism-based
Enterococcus [16] = assay: Antibacterial activity against vancomycin-resistant Enterococcus at 50 ug/disk by agar disk diffusion assay; format: functional, organism-based
Enterococcus [17] = assay: Antibacterial activity against vancomycin-resistant Enterococcus at 5 ug/disk by agar disk diffusion assay; format: functional; settings: read-out: IZ
Enterococcus faecium [18] = assay: Antibacterial activity against Enterococcus faecium at 5 ug/disk by agar disk diffusion assay; format: functional; settings: read-out: IZ

Structure (SMILES)	zone of inhibition at 25 µg/disc (Staphylococcus aureus [1]) [mm]	zone of inhibition at 25 µg/disc (Staphylococcus aureus [2]) [mm]	inhibition zone (IZ) (Staphylococcus aureus [3])	inhibition zone (IZ) (Staphylococcus aureus [4])	zone of inhibition at 25 µg/disc (Enterococcus [7]) [mm]	MIC (Staphylococcus aureus [8])	MIC (Staphylococcus aureus [9])	MIC (Enterococcus faecium [10])	MIC (Enterococcus [11])	zone of inhibition at 25 µg/disc (Enterococcus faecium [14]) [mm]	also measured
O=C(O)CCCCCCCNC(=O)/C=C/CCC=C(Br)Br	8	8	–	–	–	–	–	–	–	–	–
NC(=O)CNC(=O)/C=C/CCCCCCCCCC=C(Br)Br	–	–	inactive	inactive	–	–	–	–	–	–	–
O=C(/C=C/CCCCCCCCCC=C(Br)Br)N[C@H](C(=O)O)c1ccccc1	8	8	–	–	8	17 µg/mL (≈ 33 µM)	21 µg/mL (≈ 40.8 µM)	25 µg/mL (≈ 48.5 µM)	22 µg/mL (≈ 42.7 µM)	–	zone of inhibition at 10 µg/disc (Enterococcus faecium [5]): 8 mm; zone of inhibition at 10 µg/disc (Enterococcus [6]): 8 mm
O=C(O)CNC(=O)/C=C/CCCCCCCCCC=C(Br)Br [MOTUALEVIC ACID A]	–	–	–	–	8	11 µg/mL (≈ 25 µM)	9.3 µg/mL (≈ 21.2 µM)	9.3 µg/mL (≈ 21.2 µM)	12 µg/mL (≈ 27.3 µM)	8	zone of inhibition at 10 µg/disc (Staphylococcus aureus [12]): 8 mm; zone of inhibition at 10 µg/disc (Staphylococcus aureus [13]): 8 mm; zone of inhibition at 10 µg/disc (Enterococcus [6]): 8 mm
O=C(O)C[C@H](NC(=O)/C=C/CCCCCCCCCC=C(Br)Br)C(=O)O	–	–	inactive	–	–	inactive	inactive	inactive	inactive	–	inhibition zone (IZ) (Enterococcus faecium [15]): inactive; inhibition zone (IZ) (Enterococcus [16]): inactive
O=C(O)CCCNC(=O)/C=C/CCCCCCCCCC=C(Br)Br	8	8	–	–	8	2.5 µg/mL (≈ 5.35 µM)	2.4 µg/mL (≈ 5.14 µM)	11 µg/mL (≈ 23.5 µM)	8.5 µg/mL (≈ 18.2 µM)	–	zone of inhibition at 10 µg/disc (Enterococcus faecium [5]): 8 mm; zone of inhibition at 10 µg/disc (Enterococcus [6]): 8 mm
CCCCCCCCC/C=C/C(=O)NCC(=O)O	–	–	inactive	inactive	–	–	–	–	–	–	–
O=C(O)CN(CC(=O)O)C(=O)/C=C/CCCCCCCCCC=C(Br)Br	–	–	–	–	–	inactive	inactive	inactive	inactive	–	zone of inhibition at 50 µg/disc (Staphylococcus aureus [3]): 8 mm; zone of inhibition at 50 µg/disc (Staphylococcus aureus [4]): 8 mm; inhibition zone (IZ) (Enterococcus faecium [15]): inactive; inhibition zone (IZ) (Enterococcus [16]): inactive
CN(C)C(=O)CNC(=O)/C=C/CCCCCCCCCC=C(Br)Br	–	–	inactive	inactive	–	–	–	–	–	–	–
CCC/C=C/C(=O)NCC(=O)O	–	–	inactive	inactive	–	–	–	–	–	–	–
C[N+](C)(C)CCNC(=O)/C=C/CCCCCCCCCC=C(Br)Br.[Cl-]	–	–	–	–	8	2.4 µg/mL	4.2 µg/mL	3.7 µg/mL	5.2 µg/mL	8	zone of inhibition at 10 µg/disc (Staphylococcus aureus [12]): 8 mm; zone of inhibition at 10 µg/disc (Staphylococcus aureus [13]): 8 mm
O=C(O)/C=C/CCCCCCCCCC=C(Br)Br [MOTUALEVIC ACID E]	–	–	–	inactive	–	–	–	–	–	–	zone of inhibition at 50 µg/disc (Staphylococcus aureus [3]): 8 mm
O=C(O)CNC(=O)/C=C/CCCCCCCC=C(Br)Br	–	–	–	–	–	–	–	–	–	–	zone of inhibition at 50 µg/disc (Staphylococcus aureus [3]): 8 mm; zone of inhibition at 50 µg/disc (Staphylococcus aureus [4]): 8 mm
CC(C)C[C@H](NC(=O)/C=C/CCCCCCCCCC=C(Br)Br)C(=O)O	8	8	–	–	–	2.3 µg/mL (≈ 4.64 µM)	2.9 µg/mL (≈ 5.86 µM)	6.4 µg/mL (≈ 12.9 µM)	3.7 µg/mL (≈ 7.47 µM)	–	zone of inhibition at 10 µg/disc (Enterococcus faecium [5]): 8 mm; zone of inhibition at 5 µg/disc (Enterococcus [17]): 8 mm
O=C(O)[C@@H]1C[C@H](O)CN1C(=O)/C=C/CCCCCCCCCC=C(Br)Br	–	8	inactive	–	8	–	–	–	–	8	–
O=C(O)CCNC(=O)/C=C/CCCCCCCCCC=C(Br)Br	–	–	–	–	8	3.6 µg/mL (≈ 7.94 µM)	3.3 µg/mL (≈ 7.28 µM)	11 µg/mL (≈ 24.3 µM)	12 µg/mL (≈ 26.5 µM)	8	zone of inhibition at 10 µg/disc (Staphylococcus aureus [12]): 8 mm; zone of inhibition at 10 µg/disc (Staphylococcus aureus [13]): 8 mm; zone of inhibition at 10 µg/disc (Enterococcus [6]): 8 mm
O=C(/C=C/CCCCCCCCCC=C(Br)Br)N[C@@H](Cc1ccccc1)C(=O)O	–	–	inactive	–	–	5 µg/mL (≈ 9.45 µM)	4.4 µg/mL (≈ 8.31 µM)	6.3 µg/mL (≈ 11.9 µM)	2.9 µg/mL (≈ 5.48 µM)	–	zone of inhibition at 50 µg/disc (Staphylococcus aureus [4]): 8 mm; zone of inhibition at 5 µg/disc (Enterococcus faecium [18]): 8 mm; zone of inhibition at 5 µg/disc (Enterococcus [17]): 8 mm
O=C(O)CNC(=O)/C=C/CCC=C(Br)Br	–	–	inactive	inactive	–	–	–	–	–	–	–
O=C(O)[C@H]1CCCN1C(=O)/C=C/CCCCCCCCCC=C(Br)Br	8	8	–	–	8	18 µg/mL (≈ 37.6 µM)	19 µg/mL (≈ 39.6 µM)	15 µg/mL (≈ 31.3 µM)	11 µg/mL (≈ 23 µM)	8	zone of inhibition at 10 µg/disc (Enterococcus [6]): 8 mm
O=C(O)[C@@H]1CCCN1C(=O)/C=C/CCCCCCCCCC=C(Br)Br	8	–	–	–	–	10 µg/mL (≈ 20.9 µM)	9 µg/mL (≈ 18.8 µM)	10 µg/mL (≈ 20.9 µM)	12 µg/mL (≈ 25 µM)	8	zone of inhibition at 10 µg/disc (Staphylococcus aureus [13]): 8 mm; zone of inhibition at 5 µg/disc (Enterococcus [17]): 8 mm
